Assay results taken from the supplement of paper PMC11061612.

Assays:
Assay in all cases: combination Emax (second highest fraction inhibited in the dose matrix, 72 h); higher = more inhibition; extreme values may be limits of the assay
[1] = tested on: LC-1-sq (Squamous Cell Lung Carcinoma)
Procedure, shortened: (§1)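 Bliss excess equals the observed combination effect minus the expected value EA + EB − EA·EB, where EA and EB are the effects of each agent alone. Combination Emax is the second-highest inhibition within the matrix. Inhibition was scaled from CellTiter-Glo 2.0 luminescence, with 0 set by vehicle wells and 1 by blank wells, after 72 hours of two-drug dosing of cells plated in 1536-well plates.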

[2] = tested on: EW-1 (Ewing's Sarcoma)
Procedure, shortened: as §1

[3] = tested on: SW982 (Other Solid Carcinomas)
Procedure, shortened: as §1

[4] = tested on: Mo-T (Other Blood Carcinomas)
Procedure, shortened: as §1

Compound: CC(=O)Nc1cccc(-n2c(=O)n(C3CC3)c(=O)c3c(Nc4ccc(I)cc4F)n(C)c(=O)c(C)c32)c1 [Trametinib] + Cc1nc(-c2cn3c(n2)-c2ccc(-c4cnn(C(C)(C)C(N)=O)c4)cc2OCC3)n(C(C)C)n1 [Taselisib] (first compound max 1 µM, 7x7, partner max 10 µM)
- combination Emax [1]: 0.722
- combination Emax [2]: 0.761
- combination Emax [3]: 0.83
- combination Emax [4]: 0.524

Compound: CC1(C)CCC(CN2CCN(c3ccc(C(=O)NS(=O)(=O)c4ccc(NCC5CCOCC5)c([N+](=O)[O-])c4)c(Oc4cnc5[nH]ccc5c4)c3)CC2)=C(c2ccc(Cl)cc2)C1 [Venetoclax] + C1CN(CCC1(C(=O)N[C@@H](CCO)C2=CC=C(C=C2)Cl)N)C3=NC=NC4=C3C=CN4 [Capivasertib] (first compound max 1 µM, 7x7, partner max 3 µM)
- combination Emax [1]: 0.198
- combination Emax [2]: 0.365
- combination Emax [3]: 0.256
- combination Emax [4]: 0.604

Compound: CC1(C)CCC(CN2CCN(c3ccc(C(=O)NS(=O)(=O)c4ccc(NCC5CCOCC5)c([N+](=O)[O-])c4)c(Oc4cnc5[nH]ccc5c4)c3)CC2)=C(c2ccc(Cl)cc2)C1 [Venetoclax] + C=CCn1c(=O)c2cnc(Nc3ccc(N4CCN(C)CC4)cc3)nc2n1-c1cccc(C(C)(C)O)n1 [AZD1775] (first compound max 1 µM, partner max 1 µM)
- combination Emax [1]: 0.689
- combination Emax [2]: 0.947
- combination Emax [3]: 0.742
- combination Emax [4]: 0.629

Compound: CC1(C)CCC(CN2CCN(c3ccc(C(=O)NS(=O)(=O)c4ccc(NCC5CCOCC5)c([N+](=O)[O-])c4)c(Oc4cnc5[nH]ccc5c4)c3)CC2)=C(c2ccc(Cl)cc2)C1 [Venetoclax] + CCN(CCO)CCCOc1ccc2c(Nc3cc(CC(=O)Nc4cccc(F)c4)[nH]n3)ncnc2c1 [AZD2811] (first compound max 1 µM, 7x7, partner max 1 µM)
- combination Emax [1]: 0.226
- combination Emax [2]: 0.365
- combination Emax [3]: 0.55
- combination Emax [4]: 0.611

Compound: CC1(C)CCC(CN2CCN(c3ccc(C(=O)NS(=O)(=O)c4ccc(NCC5CCOCC5)c([N+](=O)[O-])c4)c(Oc4cnc5[nH]ccc5c4)c3)CC2)=C(c2ccc(Cl)cc2)C1 [Venetoclax] + CN(C)CCCOc1ccc(-c2ccc3ncc4c(c3c2)n(C2CCOCC2)c(=O)n4C)cn1 [AZD0156] (first compound max 1 µM, 7x7, partner max 1 µM)
- combination Emax [1]: 0.192
- combination Emax [2]: 0.179
- combination Emax [3]: 0.2
- combination Emax [4]: 0.558

Compound: CC1(C)CCC(CN2CCN(c3ccc(C(=O)NS(=O)(=O)c4ccc(NCC5CCOCC5)c([N+](=O)[O-])c4)c(Oc4cnc5[nH]ccc5c4)c3)CC2)=C(c2ccc(Cl)cc2)C1 [Venetoclax] + COc1cc(Nc2ncc3c(n2)-c2ccc(Cl)cc2C(c2c(F)cccc2OC)=NC3)ccc1C(=O)O [Alisertib] (first compound max 1 µM, 7x7, partner max 10 µM)
- combination Emax [1]: 0.275
- combination Emax [2]: 0.628
- combination Emax [3]: 0.606
- combination Emax [4]: 0.71

Compound: CC1(C)CCC(CN2CCN(c3ccc(C(=O)NS(=O)(=O)c4ccc(NCC5CCOCC5)c([N+](=O)[O-])c4)c(Oc4cnc5[nH]ccc5c4)c3)CC2)=C(c2ccc(Cl)cc2)C1 [Venetoclax] + C[C@@H]1COCCN1C2=NC(=NC(=C2)C3(CC3)[S@](=N)(=O)C)C4=C5C=CNC5=NC=C4 [AZD6738] (first compound max 1 µM, 7x7, partner max 10 µM)
- combination Emax [1]: 0.672
- combination Emax [2]: 0.944
- combination Emax [3]: 0.676
- combination Emax [4]: 0.735

Compound: CC1(C)CCC(CN2CCN(c3ccc(C(=O)NS(=O)(=O)c4ccc(NCC5CCOCC5)c([N+](=O)[O-])c4)c(Oc4cnc5[nH]ccc5c4)c3)CC2)=C(c2ccc(Cl)cc2)C1 [Venetoclax] + C[C@@H](Nc1cc(F)cc(F)c1)c1cc(C(=O)N(C)C)cc2c(=O)cc(N3CCOCC3)oc12 [AZD8186] (first compound max 1 µM, 7x7, partner max 3 µM)
- combination Emax [1]: 0.187
- combination Emax [2]: 0.303
- combination Emax [3]: 0.382
- combination Emax [4]: 0.632

Compound: CC1(C)CCC(CN2CCN(c3ccc(C(=O)NS(=O)(=O)c4ccc(NCC5CCOCC5)c([N+](=O)[O-])c4)c(Oc4cnc5[nH]ccc5c4)c3)CC2)=C(c2ccc(Cl)cc2)C1 [Venetoclax] + Cc1cc2ncnn2cc1Nc1ncc2c(n1)n(C1CCOCC1)c(=O)n2C [AZD7648] (first compound max 1 µM, 7x7, partner max 10 µM)
- combination Emax [1]: 0.242
- combination Emax [2]: 0.418
- combination Emax [3]: 0.27
- combination Emax [4]: 0.616

Compound: CC1(C)CCC(CN2CCN(c3ccc(C(=O)NS(=O)(=O)c4ccc(NCC5CCOCC5)c([N+](=O)[O-])c4)c(Oc4cnc5[nH]ccc5c4)c3)CC2)=C(c2ccc(Cl)cc2)C1 [Venetoclax] + Cn1cnc2c(F)c(Nc3ccc(Br)cc3Cl)c(C(=O)NOCCO)cc21 [Selumetinib] (first compound max 1 µM, 7x7, partner max 3 µM)
- combination Emax [1]: 0.236
- combination Emax [2]: 0.238
- combination Emax [3]: 0.242
- combination Emax [4]: 0.618
